According to patent publication EP0316690A2, “Agent for the treatment of ischemic heart diseases” (Dr. Karl Thomae GmbH, priority 1987, dated 1989):

Key:
[1] = system: glattmuskuläre coronare Muscarinrezeptoren; test: Isolated perfused Langendorff heart: antagonism of the carbachol effect on coronary flow (CF); design: species or system Wistar Ratten; settings: for Coronarselektivität (Affinität für coronare vs. frequenzbeeinflussende M-Rezeptoren): comparison of CF and HR effects in the isolated rat heart; for pA₂-Werte Coronarflußeffekt CF: isolated rat heart, agonist Carbachol bolus 10⁻⁶ bis 10⁻²M, antagonist in perfusate, constant pressure 70 mm Hg
Method: (§1) Meßparameter sind Herzfrequenz und Coronarfluß.
(§2) Männliche Wistar Ratten mit einem Körpergewicht zwischen 300 und 350 g wurden mit Pentobarbital (70 mg/kg i.p.) anaesthe siert. […] Die Herzen wurden über die Aorta mit Krebs-Henseleit-Puffer (KHB) retograd bei einem konstanten Druck von 70 mm Hg perfundiert. Die Zusammensetzung des KHB betrug in mM: Kochsalz 114, Kaliumchlorid 4,7, Natriumbicarbonat 23,6, Kaliumdihydrogenphosphat 1,2, Magnesiumsulfat 1,1, Calziumchlorid 2,5. 11 mM Glucose wurden als Substrat beigefügt. Die Herzfrequenz (HR) wurde durch einen Tachographen (IFD, Mülheim) gemessen, der Coronarfluß (CF) wurde mittels eines elektromagnetischen Flowmeters (IFD, Mülheim) in Verbindung mit einer Sonde in dem zuführenden Teil der Aorta bestimmt.
(§3) Nach einer 15-minütigen Stabilisierungsphase in allen Experimenten wurde die erste Dosis-Wirkungs-Kurve erstellt. Dies geschah durch die Gabe von dem Fluß angepaßten Bolus-Injektionen (0,01 ml/10 ml CF) mit ansteigenden Dosierungen von Carbachol (10⁻⁶ bis 10⁻²M). Danach wurde die niedrigste Dosis des Antagonisten dem Perfusat beigegeben und die Dosis-Wirkungs-Kurve erneut aufgenommen. Darauffolgend gab man eine höhere Dosis des Antagonisten zu und es wurde der Einfluß von Carbachol auf den Coronarfluß (CF) und die Herzfrequenz (HF) erneut durch die Aufnahme von Dosis-Wirkungs-Kurven quantifiziert.

[2] = target: T1, frequenzbeeinflussende M-Rezeptoren (Rattus norvegicus, UniProt P10980); test: Isolated perfused Langendorff heart: antagonism of the negative chronotropic carbachol effect on heart rate (HR/HF); design: species or system Wistar Ratten; settings: isolated spontaneously beating rat heart, agonist Carbachol bolus 10⁻⁶ bis 10⁻²M, antagonist in perfusate; read-out: pA₂-Werte Herzfrequenz-Effekt HR (converted)
T1 construct: danach das Herz entnommen; from tissue; host or cells: isolated perfused Langendorff heart of male Wistar rats
T1 sequence (P10980 1-466): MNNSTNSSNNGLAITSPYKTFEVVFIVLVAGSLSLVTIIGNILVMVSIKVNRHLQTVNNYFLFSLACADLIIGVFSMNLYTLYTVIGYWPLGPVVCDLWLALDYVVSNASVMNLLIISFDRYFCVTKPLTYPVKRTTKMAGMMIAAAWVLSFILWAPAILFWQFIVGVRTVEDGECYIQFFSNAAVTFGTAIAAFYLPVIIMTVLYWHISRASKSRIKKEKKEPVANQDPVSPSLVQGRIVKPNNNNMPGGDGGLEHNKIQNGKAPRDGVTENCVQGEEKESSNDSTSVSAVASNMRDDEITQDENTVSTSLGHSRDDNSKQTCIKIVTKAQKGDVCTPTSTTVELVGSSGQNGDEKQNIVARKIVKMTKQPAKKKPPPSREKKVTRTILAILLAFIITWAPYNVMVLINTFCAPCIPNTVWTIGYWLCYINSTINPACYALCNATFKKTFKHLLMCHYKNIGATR
Method: as §1, §2, §3

SMILES	Kb ([1]; read-out: pA₂-Werte Coronarflußeffekt CF (converted)) [nM]	Kb [2] [nM]	Coronarselektivität (Affinität für coronare vs. frequenzbeeinflussende M-Rezeptoren) [1]	pA₂-Werte Coronarflußeffekt CF [1]
CN1C2CCC1CC(OC(=O)C(CO)c1ccccc1)C2 (racemic) [Atropin, reference compound]	0.631	–	–	–
CN1CCC(CC(=O)N2c3ccccc3C(=O)Nc3cccc(Cl)c32)CC1 (single isomer, unassigned) [Substanz II, (+)-6-Chlor-5,10-dihydro-5-[(1-methyl-4-piperidinyl)acetyl]-11H-dibenzo[b,e][1,4]diazepin-11-on]	–	31.6	höhere Affinität für coronare als für frequenzbeeinflussende M-Rezeptoren	8,2 ± 0,1
CN1CCC(CC(=O)N2c3ccccc3C(=O)Nc3cccc(Cl)c32)CC1 (racemic) [Substanz I, 6-Chlor-5,10-dihydro-5-[(1-methyl-4-piperidinyl)acetyl]-11H-dibenzo[b,e][1,4]diazepin-11-on]	–	50.1	höhere Affinität für coronare als für frequenzbeeinflussende M-Rezeptoren	7,9 ± 0,2
